Source: patent US9102712B2, “Dendrimeric peptides, pharmaceutical compositions and methods of using the same” (New York University, priority 2010, dated 2015)
≈ marks a conversion by molar mass, not a printed value. Square brackets hold non-standard residues; d marks the D form. Side chains are listed from the residue outwards. Peptide text beside a SMILES is read from it. * marks the point of attachment. ξ: configuration not given here. Lys(α,ε-(ArgTrp)2) = N=C(N)NCCC[C@H](N)C(=O)N[C@@H](Cc1c[nH]c2ccccc12)C(=O)NCCCC[C@H](NC(=O)[C@H](Cc1c[nH]c2ccccc12)NC(=O)[C@@H](N)CCCNC(=N)N)C(=O)*; X1 = CC(C)(C)c1cc(C(C)(C)C)c2[nH]c(C(C)(C)C)c(CC(NC(=O)[C@@H](N)CCCNC(=N)N)C(=O)*)c2c1; Trp(2,5,7-tBu3) = CC(C)(C)c1cc(C(C)(C)C)c2[nH]c(C(C)(C)C)c(C[C@H](N)C(=O)O)c2c1; ξTrp(2,5,7-tBu3) = CC(C)(C)c1cc(C(C)(C)C)c2[nH]c(C(C)(C)C)c(CC(N)C(=O)O)c2c1; βAla = NCCC(=O)O

Assays:
E. coli (D31) = test: Antibacterial broth microdilution, E. coli; assay type: cell-based; details: for IC50 E. Coli D31 / E. Coli IC50: 50% inhibition of growth, MH broth, 18 hrs at 37° C.; for IC50 E. Coli D31: Table 3; for E. Coli HI (hemolytic index): HI=HD50/IC50, E. coli; for E. Coli IC50: Table 1
Description: (§1) The antibacterial activity of each dendrimer peptide was tested by following standard broth microdilution protocols recommended by the National Committee for Clinical Laboratory Standard (NCCLS 2004). Antibacterial testing was carried out on gram-negative bacteria E. coli (D31) and gram-positive bacteria S. aureus in liquid media Mueller Hinton (MH) Brooth according to literature procedures. Dendrimers were dissolved in PBS buffer (high salt, 150 mM NaCl; low salt, 75 mM NaCl), pH 7.4 to make series of stocks of 2-fold dilution. Cultures were grown overnight on Mueller Hinton (MH) agar plates, and 3 to 5 uniform colonies of each organism were transferred with an inoculating loop to test tubes containing MH broth, and incubated at 37° C. overnight, then diluted until the turbidity matched that of the 0.5 McFarland standard (approximately 1.5×10^8 cells/mL). The resulting solutions were further diluted to give approximately 2×10^4-2×10^5 CFU/mL. 100 μL of the bacterial inoculums were incubated in 96-well plates with varying volumes of stock solution and PBS buffer to bring the total volume to 200 μL. Solutions containing the same volumes of PBS buffer and MH Broth, with and without bacteria were used as controls. After these plates were incubated with shaking for 18 hrs at 37° C. to ensure the cultures had reached log phase growth, the absorbance readings were recorded at a wavelength of 600 nm using a Absorbance Microplate Reader BIO-TEK ELX800. The 18-hour absorbance data were used to calculate the percent inhibition for each test condition. All assays were carried out in triplicate. The experimental data were fitted to sigmoidal dose-response curves using GraphPad Prism (GraphPad Software Inc., San Diego, Calif., USA).

MRSA = assay type: cell-based, Methicillin-resistant Staphylococcus aureus; details: 18 h
Description: as §1

B. Subtilis = assay type: cell-based; details: 18 h
fresh sheep RBC = assay type: cell-based; details: red cells of sheep, 1 h
Description: Hemolytic activity of dendrimeric compounds were assessed on fresh sheep RBC (Fitzgerald, Inc., MA). Dendrimer concentrations corresponding to 50% hemolysis were used as hemolytic dose (HD50) determined from dose-response curve. The fresh sheep RBC was washed with PBS buffer (thrice) and aliquots of cell suspension were mixed in eppendorf tubes with varying volumes of stocks and buffer for a total volume of 400 μL. These tubes were incubated at 37° C. for 1 hr, and then spun down at 3,000 rpm for 5 mins. The resulting supernatant was trasferred to a 96-well plate and the absorbances at 540 nm were measured in an Absorbance Microplate Reader BIO-TEK ELX800. Zero hemolysis and 100% hemolysis controls were obtained by incubating the cells with buffer and 1% Triton X-100, respectively. Hemolytic index (HI) was defined as HI=HD50/IC50 (Table 1 and 3).

S. aureus = assay type: cell-based; details: for S. Aureus IC50: 18 h; for S. Aureus HI (hemolytic index): HI=HD50/IC50, S. aureus
Description: as §1

Row | Compound | IC50 E. Coli D31 (E. coli (D31)) [µg/mL] | IC50 MRSA (MRSA) [µg/mL] | IC50 B. Subtilis (B. Subtilis) [µg/mL] | HD50 Hemolysis (fresh sheep RBC) [µg/mL] | E. Coli HI (hemolytic index) (E. coli (D31)) | S. Aureus IC50 (S. aureus) [µg/mL] | S. Aureus HI (hemolytic index) (S. aureus) | Hemolysis HD50 (fresh sheep RBC) [µg/mL] | E. Coli IC50 (E. coli (D31)) [µg/mL]
1 | CC(C)(C)c1cc(C(C)(C)C)c2[nH]c(C(C)(C)C)c(CC(NC(=O)[C@@H](N)CCCNC(=N)N)C(=O)N[C@@H](CCCNC(=N)N)C(=O)NCCCC[C@H](NC(=O)[C@H](CCCNC(=N)N)NC(=O)C(Cc3c(C(C)(C)C)[nH]c4c(C(C)(C)C)cc(C(C)(C)C)cc34)NC(=O)[C@@H](N)CCCNC(=N)N)C(=O)N[C@@H](CCCCNC(=O)[C@H](CCCNC(=N)N)NC(=O)[C@H](Cc3c[nH]c4ccccc34)NC(=O)[C@@H](N)CCCNC(=N)N)C(=O)NCCC(N)=O)c2c1 (stereo partly drawn) [Dendrimer 3D-26] (H-R[ξTrp(2,5,7-tBu3)]RK([Arg-X1])K([Arg-Trp-Arg])[βAla]-NH2) | 1.4 (≈ 0.643 µM) | 0.5 (≈ 0.23 µM) | 1.4 (≈ 0.643 µM) | 33 |  |  |  |  | 
2 | CC(C)(C)c1cc(C(C)(C)C)c2[nH]c(C(C)(C)C)c(C[C@H](N)C(=O)N[C@@H](CCCNC(=N)N)C(=O)NCCCC[C@H](NC(=O)[C@H](CCCNC(=N)N)NC(=O)[C@@H](N)Cc3c(C(C)(C)C)[nH]c4c(C(C)(C)C)cc(C(C)(C)C)cc34)C(=O)N[C@@H](CCCCNC(=O)[C@H](CCCNC(=N)N)NC(=O)[C@@H](N)Cc3c[nH]c4ccccc34)C(=O)NCCC(N)=O)c2c1 [Dendrimer 3D-23] (H-[Trp(2,5,7-tBu3)]RK([Arg-Trp(2,5,7-tBu3)])K([Arg-Trp])[βAla]-NH2) | 2.4 (≈ 1.4 µM) | 0.7 (≈ 0.41 µM) | 2.1 (≈ 1.23 µM) | 99 |  |  |  |  | 
3 | CC(C)(C)c1cc(C(C)(C)C)c2[nH]c(C(C)(C)C)c(C[C@H](N)C(=O)N[C@@H](CCCNC(=N)N)C(=O)NCCCC[C@H](NC(=O)[C@H](CCCCNC(=O)[C@H](CCCNC(=N)N)NC(=O)[C@@H](N)Cc3c[nH]c4ccccc34)NC(=O)[C@H](CCCNC(=N)N)NC(=O)[C@@H](N)Cc3c[nH]c4ccccc34)C(=O)NCCC(N)=O)c2c1 [Dendrimer 3D-13] (H-WRK([Arg-Trp])K([Arg-Trp(2,5,7-tBu3)])[βAla]-NH2) | 1.0 (≈ 0.649 µM) | 1.7 (≈ 1.1 µM) | 1.9 (≈ 1.23 µM) | 270 |  |  |  |  | 
4 | N=C(N)NCCC[C@H](NC(=O)[C@@H](N)Cc1c[nH]c2ccccc12)C(=O)NCCCC[C@H](NC(=O)[C@H](CCCNC(=N)N)NC(=O)[C@@H](N)Cc1c[nH]c2ccccc12)C(=O)NCCCC[C@H](NC(=O)[C@H](CCCCNC(=O)[C@H](CCCNC(=N)N)NC(=O)[C@@H](N)Cc1c[nH]c2ccccc12)NC(=O)[C@H](CCCNC(=N)N)NC(=O)[C@@H](N)Cc1c[nH]c2ccccc12)C(=O)NCCC(N)=O [Dendrimer 4D-04, reference compound] | 4.5 (≈ 2.44 µM) | 14.6 (≈ 7.93 µM) | 4.2 (≈ 2.28 µM) | 1563 |  |  |  |  | 
5 | N=C(N)NCCC[C@H](N)C(=O)N[C@@H](Cc1c[nH]c2ccccc12)C(=O)NCCCC[C@H](NC(=O)[C@H](Cc1c[nH]c2ccccc12)NC(=O)[C@@H](N)CCCNC(=N)N)C(=O)NCCCC[C@H](NC(=O)[C@H](CCCCNC(=O)[C@H](Cc1c[nH]c2ccccc12)NC(=O)[C@@H](N)CCCNC(=N)N)NC(=O)[C@H](Cc1c[nH]c2ccccc12)NC(=O)[C@@H](N)CCCNC(=N)N)C(=O)NCCC(N)=O [(RW)4D, reference compound] (H-RWK([Trp-Arg])K(Lys(α,ε-(ArgTrp)2))[βAla]-NH2; N-terminus and C-terminus assumed) |  |  |  |  | 310 | 16 | 88 | 1400 | 
6 | NCCCC[C@H](N)C(=O)N[C@@H](Cc1c[nH]c2ccccc12)C(=O)NCCN(CCNC(=O)[C@H](Cc1c[nH]c2ccccc12)NC(=O)[C@@H](N)CCCCN)CCNC(=O)[C@H](Cc1c[nH]c2ccccc12)NC(=O)[C@@H](N)CCCCN [TAEA-(WK)3, TAEA-(WK—NH2)3] |  |  |  |  | 789 | 4.12 ± 0.58 | 1316 | 5423 | 6.87 ± 0.01
7 | N=C(N)NCCC[C@H](NC(=O)[C@@H](N)Cc1c[nH]c2ccccc12)C(=O)NCCCC[C@H](NC(=O)[C@H](CCCCNC(=O)[C@H](CCCNC(=N)N)NC(=O)[C@@H](N)Cc1c[nH]c2ccccc12)NC(=O)[C@H](CCCNC(=N)N)NC(=O)[C@@H](N)Cc1c[nH]c2ccccc12)C(=O)NCCC(N)=O [Dendrimer 3D-03, reference compound] (H-WRK([Arg-Trp])K([Arg-Trp])[βAla]-NH2) | 12.1 (≈ 8.82 µM) | >100 | 14.3 (≈ 10.4 µM) | 3197 |  |  |  |  | 
8 | N=C(N)NCCC[C@H](NC(=O)[C@H](Cc1c[nH]c2ccccc12)NC(=O)[C@@H](N)CCCNC(=N)N)C(=O)NCCCC[C@H](NC(=O)[C@H](CCCCNC(=O)[C@H](CCCNC(=N)N)NC(=O)[C@H](Cc1c[nH]c2ccccc12)NC(=O)[C@@H](N)CCCNC(=N)N)NC(=O)[C@H](CCCNC(=N)N)NC(=O)[C@H](Cc1c[nH]c2ccccc12)NC(=O)[C@@H](N)CCCNC(=N)N)C(=O)NCCC(N)=O [Dendrimer 3D-06, reference compound] (H-RWRK([Arg-Trp-Arg])K([Arg-Trp-Arg])[βAla]-NH2) | 1.8 (≈ 0.978 µM) | 17.3 (≈ 9.4 µM) | 1.9 (≈ 1.03 µM) | 2336 |  |  |  |  | 
9 | CC(C)(C)c1cc(C(C)(C)C)c2[nH]c(C(C)(C)C)c(CC(NC(=O)[C@@H](N)CCCNC(=N)N)C(=O)N[C@@H](CCCNC(=N)N)C(=O)NCCCC[C@H](NC(=O)[C@H](CCCNC(=N)N)NC(=O)C(Cc3c(C(C)(C)C)[nH]c4c(C(C)(C)C)cc(C(C)(C)C)cc34)NC(=O)[C@@H](N)CCCNC(=N)N)C(=O)NCCC(N)=O)c2c1 (stereo partly drawn) [Dendrimer 2D-24] | 0.5 (≈ 0.323 µM) | 0.2 (≈ 0.129 µM) | 0.8 (≈ 0.516 µM) | 48 |  |  |  |  | 
10 | N=C(N)NCCC[C@H](NC(=O)[C@H](Cc1c[nH]c2ccccc12)NC(=O)[C@@H](N)CCCNC(=N)N)C(=O)NCCCC[C@H](NC(=O)[C@H](CCCNC(=N)N)NC(=O)[C@H](Cc1c[nH]c2ccccc12)NC(=O)[C@@H](N)CCCNC(=N)N)C(=O)NCCC(N)=O [Dendrimer 2D-04, reference compound] (H-RWRK([Arg-Trp-Arg])[βAla]-NH2) | 6.8 (≈ 5.6 µM) | 56.6 (≈ 46.6 µM) | 6.1 (≈ 5.03 µM) | 3428 |  |  |  |  | 
11 | CC(C)(C)c1cc(C(C)(C)C)c2[nH]c(C(C)(C)C)c(CC(NC(=O)[C@@H](N)CCCNC(=N)N)C(=O)N[C@@H](CCCNC(=N)N)C(=O)NCCCC[C@H](NC(=O)[C@H](CCCCNC(=O)[C@H](CCCNC(=N)N)NC(=O)[C@H](Cc3c[nH]c4ccccc34)NC(=O)[C@@H](N)CCCNC(=N)N)NC(=O)[C@H](CCCNC(=N)N)NC(=O)[C@H](Cc3c[nH]c4ccccc34)NC(=O)[C@@H](N)CCCNC(=N)N)C(=O)NCCC(N)=O)c2c1 (stereo partly drawn) [Dendrimer 3D-16] (H-RWRK([Arg-Trp-Arg])K([Arg-X1])[βAla]-NH2) | 0.4 (≈ 0.199 µM) | 5.2 (≈ 2.59 µM) | 0.9 (≈ 0.448 µM) | 201 |  |  |  |  | 
12 | N=C(N)NCCC[C@H](N)C(=O)N[C@@H](Cc1c[nH]c2ccccc12)C(=O)NCCCN(CCCCN(CCCNC(=O)[C@H](Cc1c[nH]c2ccccc12)NC(=O)[C@@H](N)CCCNC(=N)N)CCCNC(=O)[C@H](Cc1c[nH]c2ccccc12)NC(=O)[C@@H](N)CCCNC(=N)N)CCCNC(=O)[C@H](Cc1c[nH]c2ccccc12)NC(=O)[C@@H](N)CCCNC(=N)N [POPAM-(WR)4, POPAM-(WR—NH2)3] |  |  |  |  |  | 0.37 ± 0.13 |  | 291 | 0.57 ± 0.12
13 | N=C(N)NCCC[C@H](N)C(=O)N[C@@H](Cc1c[nH]c2ccccc12)C(=O)NCCN(CCNC(=O)[C@H](Cc1c[nH]c2ccccc12)NC(=O)[C@@H](N)CCCNC(=N)N)CCNC(=O)[C@H](Cc1c[nH]c2ccccc12)NC(=O)[C@@H](N)CCCNC(=N)N [TAEA-(WR)3, TAEA-(WR—NH2)3] |  |  |  |  |  | 0.97 ± 0.02 |  | 3073 | 2.07 ± 0.22
